The results in this text go back to patent EP3505527A1, “CYCLIC DINUCLEOTIDES FOR CYTOKINE INDUCTION” (Invivogen, priority 2017, dated 2019).

Like-named read-outs stand apart in the source and are kept apart here.

The test system of assay [1] is RAW-Difluo™ mLC3 Cells. Description: Autophagy induction (puncta formation) in RAW-Difluo mLC3 reporter cells. The following applies: 8 hours. The class given is cell-based, murine. The method, then: The ability of the CDNs of the present invention, to activate STING-dependent autophagy induction was measured using the murine autophagy reporter cell line obtained directly from InvivoGen.
RAW-Difluo™ mLC3 Cells are autophagy reporter cells derived from the murine RAW 264.7 macrophage cell line, a physiologically relevant cell line. They express an RFP::GFP::LC3 fusion protein, RFP-GFP-LC3, in which the N-terminus of murine LC3 is fused to two fluorescent reporter proteins: a RFP (acid-stable) and a GFP (acid-sensitive). In these cells, the RFP-GFP pair enables monitoring of autophagic flux in real time by detecting the appearance of green (GFP-LC3) and/or red (RFP-LC3) puncta by fluorescence microscopy.
Approximately 50,000 cells (500 µL) per well of 24-well plates were seeded 24 h before treatment. The next day, the cells were treated either with a solution containing a CDN at one of three different concentrations (1 µg/mL, 3 µg/mL or 10 µg/mL) or with Rapamycin at 25 µM, or were left untreated. The plates were incubated at 37 °C in a CO2 incubator for 8 hours. Fluorescence intensity and puncta formation was monitored at λexc = 480 nm and λem = 505 nm.

Assay [2] deals with NF-κB pathway (Homo sapiens, UniProt Q86WV6). As to the kind of experiment: NF-κB SEAP reporter assay in THP1 Dual cells. The class given is cell-based.
NF-κB pathway, sequence (Q86WV6 whole entry): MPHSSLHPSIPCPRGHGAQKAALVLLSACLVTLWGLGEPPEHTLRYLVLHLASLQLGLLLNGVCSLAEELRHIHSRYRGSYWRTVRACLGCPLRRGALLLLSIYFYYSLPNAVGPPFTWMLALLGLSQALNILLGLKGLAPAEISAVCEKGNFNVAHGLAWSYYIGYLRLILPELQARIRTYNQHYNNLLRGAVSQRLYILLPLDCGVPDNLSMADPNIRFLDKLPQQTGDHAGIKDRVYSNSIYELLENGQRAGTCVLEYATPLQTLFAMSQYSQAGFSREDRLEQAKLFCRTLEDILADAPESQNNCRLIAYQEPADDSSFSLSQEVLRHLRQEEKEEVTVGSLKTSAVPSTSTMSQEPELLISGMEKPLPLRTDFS
In assay [3] the target is T1, IRF pathway (Homo sapiens, UniProt Q86WV6). Description: ISG54 (IRF pathway) Lucia reporter assay in THP-1-Dual cells, Type I IFN induction. The class given is cell-based. From the text: The IRF pathway has been investigated by using the two following ISG reporter cell lines obtained directly from InvivoGen. They are described here and provided with their corresponding InvivoGen catalog code.
T1 sequence (Q86WV6 whole entry): as above
Background: Reporter assays use an easily measured gene product as a stand-in for the process of interest.

For assay [4], the system named is STING. Description: STING-dependent cytokine induction, overall activity in words (THP1 Dual in vitro and whole blood ex vivo, Tables 2 to 4). Conditions: comment on Tables 2 and 3. The class given is cell-based, human.
Source text: (§1) . The ex vivo (whole blood assay) cytokine-induction activity of a representative set these cyclic dinucleotides is reported here with the same protocol described in Example 2.2.
as §1, §1

Assay [5] has as its target T1, IRF pathway. Description: ISG54 reporter assay in THP-1-Dual KO-STING cells. Conditions: THP1-Dual KO-STING cells (Figures 2A and 2B). The class given is cell-based. The text has this: THP-1-Dual™-KO-STING (InvivoGen catalog code: thpd-kostg): These cells were generated from the human monocyte THP-1-Dual™, through stable homozygote knockout of the STING gene. Bialielic STING knockout was verified by functional assays, PCR and DNA sequencing.

For assay [6], the system named is Panc02 (murine pancreatic tumor cell line). Description: Murine orthotopic Panc02 pancreatic cancer model, i.p. monotherapy. Type of assay: in vivo, mouse. The following applies: for final mean tumor volume: Panc02, 1 mg/Kg i.p. once daily, 4 days a week for 3 weeks; for final mean tumor volume / incidence of metastasis: day 28; for tumor growth / incidence of metastasis: Panc02, 1 mg/Kg i.p.; for tumor growth: compared with control group. The text has this: • Species evaluated: mouse • Tumor model: Panc02 (murine pancreatic tumor cell line) • Treatments tested: CL735 and CL742 (monotherapy) • Clinical parameters evaluated: tumor volume, tumor weight and incidence of metastasis • Administration routes evaluated: intraperitoneal (i.p.) injection
On Day 1, […] (C57BL/6; male) received an orthotopic injection of Panc02 tumor cells (1 x 106) in the pancreas. On Day 8, the mice were then divided into two groups of eight each (treated groups) and one group of five (control group). Each group received a different treatment, as outlined below: • Group 1 (control): saline (by i.p. injection) once daily, 4 days a week for 3 weeks; • Group 2: CL735 at 1 mg/Kg (by i.p. injection) once daily, 4 days a week for 3 weeks; • Group 3: CL742 at 1 mg/Kg (by i.p. injection) once daily, 4 days a week for 3 weeks
Left: Weight of individual Panc02 tumors at day 28 by treatment group. Right: Mean tumor weight at day 28, sd and sem for each group. • Figure 9. Left: Volume of individual Panc02 tumors at day 28 by treatment group. Right: Mean tumor volume at day 28, sd and sem for each group. • Figure 10. Incidence of metastasis in a murine model of Panc02 tumors. The mice were treated with saline (control), CL735 or CL742 monotherapies and metastases number was recorded at day 28. On the right, table indicated the mean of metastases number on animals that have survived by day 28, sd and sem for each group.

In assay [7] the test system is B16 (murine melanoma tumor cell line). Description: Murine subcutaneous B16 melanoma model, i.t. monotherapy. The class given is in vivo, mouse. From the text: • Species evaluated: mouse • Tumor model: B16 (murine melanoma tumor cell line) • Treatments tested: CL742 and CL747 (monotherapy) • Clinical parameters evaluated: tumor volume • Administration routes evaluated: intratumoral (i.t.) injection
On Day 1, 15 mice (C57BL/6; male) received a subcutaneous injection of B16 tumor cells (1 x 105) on the right flank. On Day 13, the mice were then divided into two groups of five each (treated groups) and one group of five (control group). Each group received a different treatment, as outlined below: • Group 1 (control): saline (i.t. injection) at days 13 16 and 20; • Group 2: CL742 at 1.25 mg/Kg (i.t. injection) at days 13 16 and 20; • Group 3: CL747 at 1.25 mg/Kg (i.t. injection) at days 13 16 and 20
The tumor volume and animal weight were monitored every 2 days and animals were euthanized at Day 28 (Figure 11).

Consider `O=c1[nH]cnc2c1ncn2[C@@H]1O[C@@H]2COP(=O)(O)O[C@H]3[C@@H](F)[C@H](n4cnc5c(=O)[nH]cnc54)O[C@@H]3COP(=O)(O)O[C@H]2[C@H]1F` [CL626, reference compound], for which the Autophagy level result in assay [1] (1 µg/mL), in assay [1] (3 µg/mL) and in assay [1] (10 µg/mL) was “++ (50% of cells have puncta)” each time.

One may read the EC50 as the concentration giving half of the maximal effect. For the compound `Nc1ncnc2c1ncn2[C@@H]1O[C@@H]2COP(=O)(O)O[C@@H]3[C@@H](F)[C@@H](COP(=O)(O)O[C@H]2[C@H]1F)O[C@H]3n1cnc2c(N)ncnc21` [CL710, (2',3')c-[xylo3'F3'dAMP-2'FdAMP]], the EC50 is more than 50 µM in assay [2] (NFκB read-out) and more than 50 µM in assay [3] (THP1 Dual cells, ISG read-out).

Regarding `Nc1ncnc2c1ncn2[C@@H]1O[C@@H]2COP(=O)(O)O[C@@H]3[C@@H](F)[C@@H](COP(=O)(S)O[C@H]2[C@H]1F)O[C@H]3n1cnc2c(N)ncnc21` (some centres unmarked) [CL714, (2',3')c-[xylo3'F3'dAM(PS)-2'FdAMP]], in assay [4], the “activity (ranking between compounds)” value was “CL714 > CL766”. Besides, the EC50 in assay [2] (NFκB read-out) worked out at 14.6 µM; in assay [3] (THP1 Dual cells, ISG read-out), 4.84 µM.

On to `CC(C)(C)C(=O)OCn1cnc2c(ncn2[C@@H]2O[C@@H]3COP(=O)(O)O[C@H]4[C@@H](F)[C@H](n5cnc6c(=O)[nH]cnc65)O[C@@H]4COP(=O)(O)O[C@H]3[C@H]2F)c1=O` [CL733, c-[2'FdI(POM)MP-2'FdIMP]], for which the Autophagy level result in assay [1] (1 µg/mL) is reported as “+/- (10% of cells have puncta)”; in assay [1] (3 µg/mL), “+/- (10% of cells have puncta)”; in assay [1] (10 µg/mL) it was “+ (25% of cells have puncta)”.

Take `O=c1[nH]cnc2c1ncn2[C@@H]1O[C@@H]2COP(=O)(S)O[C@H]3[C@@H](F)[C@H](n4cnc5c(=O)[nH]cnc54)O[C@@H]3COP(=O)(S)O[C@H]2[C@H]1F` (stereo partly drawn) [CL735, c-di[2'FdIMP(S)]]: in assay [1] (1 µg/mL), the Autophagy level entry was “++ (50% of cells have puncta)”. In addition, the Autophagy level entry in assay [1] (3 µg/mL) is recorded as “++ (50% of cells have puncta)”. Besides, the Autophagy level entry in assay [1] (10 µg/mL) is on record as “++ (50% of cells have puncta)”. Besides, the “production of Type I interferons” value in assay [5] is on record as “did not induced production of Type I interferons”. Further, in assay [6], the “final mean tumor volume” value was 150 +/- 69 mm3, the tumor growth entry is on record as “significant reduction in tumor growth” and the incidence of metastasis entry is given as “no metastases were found”.

`O=c1[nH]cnc2c1ncn2[C@@H]1O[C@@H]2COP(=O)(O)O[C@@H]3[C@@H](F)[C@@H](COP(=O)(O)O[C@H]2[C@H]1F)O[C@H]3n1cnc2c(=O)[nH]cnc21` [CL742, (2',3')c-[3'F3'XylodIMP-2'FdIMP]]: the Autophagy level result is reported as “+/- (10% of cells have puncta)” in assay [1] (1 µg/mL), “+/- (10% of cells have puncta)” in assay [1] (3 µg/mL) and “+ (25% of cells have puncta)” in assay [1] (10 µg/mL). For the same compound, the “production of Type I interferons” value in assay [5] was “did not induced production of Type I interferons”. Also, the “final mean tumor volume” value in assay [6] is 47 +/- 29 mm3. Moreover, the tumor growth result in assay [6] is given as “significant reduction in tumor growth”; in assay [7] (B16, 1.25 mg/Kg i.t., compared with control group), “significant reduction in tumor growth”. The incidence of metastasis entry in assay [6] is reported as “no metastases were found”. Besides, the mean tumor volume in assay [7] (B16, 1.25 mg/Kg i.t. at days 13 16 and 20, day 20) is 779 +/- 816 mm3.

In the case of `CC(C)(C)C(=O)OCSP1(=O)OC[C@H]2O[C@@H](n3cnc4c(N)ncnc43)[C@H](F)[C@@H]2OP(=O)(SCOC(=O)C(C)(C)C)OC[C@H]2O[C@@H](n3cnc4c(=O)[nH]c(N)nc43)[C@H](O1)[C@H]2F` (some centres unmarked) [CL751, (2',3')c-[3'F3'XylodGM(PS-POM)-2'FdAM(PS-POM)]], the results for the EC50 in assay [2] (read-out: EC50 THP1 Dual NFκB) and in assay [3] (read-out: EC50 THP1 Dual ISG) were 2.51 µM and 0.93 µM, respectively.

As for `CC(C)(C)C(=O)OCSP1(=O)OC[C@H]2O[C@@H](n3cnc4c(N)ncnc43)[C@H](F)[C@@H]2OP(=O)(SCOC(=O)C(C)(C)C)OC[C@H]2O[C@@H](n3cnc4c(N)ncnc43)[C@H](O1)[C@H]2F` (some centres unmarked) [CL760, (2',3')c-[xylo3'F3'dAM(PS-POM)-2'FdAM(PS-POM)]], the EC50 was 1.76 µM in assay [2] (read-out: EC50 THP1 Dual NFκB) and 0.33 µM in assay [3] (read-out: EC50 THP1 Dual ISG).

Turning to `Nc1nc(Cl)nc2c1ncn2[C@H]1C[C@@H]2OP(=O)(O)OC[C@H]3O[C@@H](n4cnc5c(=O)[nH]cnc54)[C@H](F)[C@@H]3OP(=O)(O)OC[C@H]2O1` [CL761, (3'3')c-(2CIdAMP-2'FdIMP)], the “activity (ranking between compounds)” value in assay [4] is given as “CL761 < CL760”.

Consider `CC(C)(C)C(=O)OCn1cnc2c(ncn2[C@@H]2O[C@@H]3COP(=O)(O)O[C@H]4C[C@H](n5cnc6c(N)nc(Cl)nc65)O[C@@H]4COP(=O)(O)O[C@H]3[C@H]2F)c1=O` [CL762, (3'3')c-[2CIdAMP-2'FdI(POM)MP]], for which the “activity (ranking between compounds)” value in assay [4] was “CL762 < CL760”.

For `Nc1ncnc2c1ncn2[C@@H]1O[C@@H]2COP(=O)(S)O[C@@H]3[C@@H](F)[C@@H](COP(=O)(S)O[C@H]2[C@H]1F)O[C@H]3n1cnc2c(N)ncnc21` (some centres unmarked) [CL766, (2',3')c-[xylo 3'F3'dAM(PS)-2'FdAM(PS)]], the EC50 in assay [2] (NFκB read-out) is more than 50 µM; in assay [3] (THP1 Dual cells, ISG read-out), more than 50 µM.

Consider `Nc1ncnc2c1ncn2[C@@H]1O[C@@H]2COP(=O)(O)O[C@@H]3[C@@H](F)[C@@H](COP(=O)(S)O[C@H]2[C@H]1F)O[C@H]3n1cnc2c(=O)[nH]cnc21` (some centres unmarked) [CL781, (2',3')c-[3'F3'XylodIMP-2'FdAM(PS)]], for which the “activity (ranking between compounds)” value in assay [4] was “CL781 >> CL764”.

Regarding `CC(C)(C)C(=O)OCSP1(=O)OC[C@H]2O[C@@H](n3cnc4c(=O)[nH]cnc43)[C@H](OP(=O)(O)OC[C@H]3O[C@@H](n4cnc5c(N)ncnc54)[C@H](F)[C@@H]3O1)[C@H]2F` (some centres unmarked) [CL784, (2',3')c-[3'F3'XylodIMP-2'FdAM(PS-POM)]], the “activity (ranking between compounds)” value in assay [4] was “CL784 > CL781”.

For `CO[C@H]1C[C@@H]2CC[C@@H](C)[C@@](O)(O2)C(=O)C(=O)N2CCCC[C@H]2C(=O)O[C@H]([C@H](C)C[C@@H]2CC[C@@H](O)[C@H](OC)C2)CC(=O)[C@H](C)/C=C(\C)[C@@H](O)[C@@H](OC)C(=O)[C@H](C)C[C@H](C)/C=C/C=C/C=C/1C` [Rapamycin, reference compound], the Autophagy level result in assay [1] (25 µM) was “++++ (90% of cells have puncta)”.

For `O=c1[nH]cnc2c1ncn2[C@@H]1O[C@@H]2COP(=O)(O)O[C@H]3[C@@H](O)[C@H](n4cnc5c(=O)[nH]cnc54)O[C@@H]3COP(=O)(O)O[C@H]2[C@H]1O` [cdiIMP, reference compound], the Autophagy level result was “+ (25% of cells have puncta)” in assay [1] (1 µg/mL), “++ (50% of cells have puncta)” in assay [1] (3 µg/mL) and “+++ (75% of cells have puncta)” in assay [1] (10 µg/mL).

With “(2',3')c-[3'F3'XylodIM(PS)-2'FdI(POM)MP] [CL746]”, the Autophagy level entry in assay [1] (1 µg/mL), in assay [1] (3 µg/mL) and in assay [1] (10 µg/mL) was “++ (50% of cells have puncta)” in each case.
